Earlier results as cited in patent US10124030B2, “Skincare preparations” (KARYNG, LLC, priority 2016, dated 2018).

Test system: epidermal SIRT1 protein expression
Conditions: 0.02% vs untreated with UVB; UVB 0.2 J/cm^2

## Oc1ccc(C=Cc2cc(O)cc(O)c2)cc1 [Resveratrol]
  modulation of epidermal SIRT1 protein expression: −22%
